Data from paper PMC6364417, “Kinase inhibitor library screening identifies synergistic drug combinations effective in sensitive and resistant melanoma cells” (Journal of Experimental & Clinical Cancer Research : CR, 2019).

Columns and labels:
Experiment in all cases: Kinase inhibitor library screening, PrestoBlue cell viability, 1 or 10 μM, 72 h
501Mel cells (parental) = settings: 501Mel Parental
Procedure, shortened: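 Cells are treated with each inhibitor at 1 or 10 μM, incubated 72 h, then PrestoBlue reagent is added and the plate is read. Data are normalised to untreated cells.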

[1] = tested on: 501Mel-GP cells (Dabrafenib-resistant); settings: 501Mel GP
[2] = tested on: 501Mel-XP cells (Vemurafenib-resistant); settings: 501Mel XP
A375 cells (parental) = settings: A375 Parental
[3] = tested on: A375-GP cells (Dabrafenib-resistant); settings: A375 GP
[4] = tested on: A375-XP cells (Vemurafenib-resistant); settings: A375 XP
IGR37 cells (parental) = settings: IGR37 Parental
[5] = tested on: IGR37-GP cells (Dabrafenib-resistant); settings: IGR37 GP
[6] = tested on: IGR37-XP cells (Vemurafenib-resistant); settings: IGR37 XP

## COc1cc2c(Oc3ccc4[nH]c(C)cc4c3F)ncnc2cc1OCCCN1CCCC1 [Cediranib (AZD2171)]
501Mel cells (parental); 10μΜ, in %
  cell viability (kinase inhibitor library screening): 1.2
[1]; 1μΜ, in %
  cell viability (kinase inhibitor library screening): 105.5
[1]; 10μΜ, in %
  cell viability (kinase inhibitor library screening): 0.9
[2]; 1μΜ, in %
  cell viability (kinase inhibitor library screening): 89.8
[2]; 10μΜ, in %
  cell viability (kinase inhibitor library screening): -0.129
A375 cells (parental); 1μΜ, in %
  cell viability (kinase inhibitor library screening): 105.9
A375 cells (parental); 10μΜ, in %
  cell viability (kinase inhibitor library screening): 27.2
[3]; 1μΜ, in %
  cell viability (kinase inhibitor library screening): 97.5
[3]; 10μΜ, in %
  cell viability (kinase inhibitor library screening): 15.1
[4]; 1μΜ, in %
  cell viability (kinase inhibitor library screening): 104.3
[4]; 10μΜ, in %
  cell viability (kinase inhibitor library screening): 4.2
IGR37 cells (parental); 1μΜ, in %
  cell viability (kinase inhibitor library screening): 94.9
IGR37 cells (parental); 10μΜ, in %
  cell viability (kinase inhibitor library screening): 1.6
[5]; 1μΜ, in %
  cell viability (kinase inhibitor library screening): 99.5
[5]; 10μΜ, in %
  cell viability (kinase inhibitor library screening): 4.2
[6]; 1μΜ, in %
  cell viability (kinase inhibitor library screening): 97.7
[6]; 10μΜ, in %
  cell viability (kinase inhibitor library screening): 1.6

## CC1(COc2ccc3c(c2)ncn3-c2ccc3cccc(N4CCC(N)CC4)c3n2)COC1 [Crenolanib (CP-868596)]
501Mel cells (parental); 1μΜ, 72 h, in %
  Cell viability in kinase inhibitor library screening, 501Mel Parental, 1μΜ: 112.4
501Mel cells (parental); 10μΜ, 72 h, in %
  Cell viability in kinase inhibitor library screening, 501Mel Parental, 10μΜ: 12.0
[1]; 1μΜ, 72 h, in %
  Cell viability in kinase inhibitor library screening, 501Mel GP, 1μΜ: 108.6
[1]; 10μΜ, 72 h, in %
  Cell viability in kinase inhibitor library screening, 501Mel GP, 10μΜ: 51.0
[2]; 10μΜ, 72 h, in %
  Cell viability in kinase inhibitor library screening, 501Mel XP, 10μΜ: 0.1
A375 cells (parental); 10μΜ, 72 h
  Cell viability in kinase inhibitor library screening, A375 Parental, 10μΜ: 69.9
A375 cells (parental); 1μΜ, 72 h
  Cell viability in kinase inhibitor library screening, A375 Parental, 1μΜ: 109.2
[3]; 10μΜ, 72 h
  Cell viability in kinase inhibitor library screening, A375 GP, 10μΜ: 66.5
[4]; 1μΜ, 72 h
  Cell viability in kinase inhibitor library screening, A375 XP, 1μΜ: 108.4
[4]; 10μΜ, 72 h
  Cell viability in kinase inhibitor library screening, A375 XP, 10μΜ: 78.4
IGR37 cells (parental); 1μΜ, 72 h, in %
  Cell viability in kinase inhibitor library screening, IGR37 Parental, 1μΜ: 103.4
IGR37 cells (parental); 10μΜ, 72 h, in %
  Cell viability in kinase inhibitor library screening, IGR37 Parental, 10μΜ: 89.7
[5]; 10μΜ, 72 h
  Cell viability in kinase inhibitor library screening, IGR37 GP, 10μΜ: 84.5%
[5]; 1μΜ, 72 h, in %
  Cell viability in kinase inhibitor library screening, IGR37 GP, 1μΜ: 104.5
[6]; 10μΜ, 72 h
  Cell viability in kinase inhibitor library screening, IGR37 XP, 10μΜ: 30.9%

## C[C@@H](Oc1cc(-c2cnn(C3CCNCC3)c2)cnc1N)c1c(Cl)ccc(F)c1Cl [Crizotinib (PF-02341066)]
501Mel cells (parental); 1μΜ, 72 h
  cell viability (kinase inhibitor library screening): 97.3%
501Mel cells (parental); 10μΜ, 72 h
  cell viability (kinase inhibitor library screening): 0.235%
[1]; 1μΜ, 72 h
  cell viability (kinase inhibitor library screening): 80.0%
[1]; 10μΜ, 72 h
  cell viability (kinase inhibitor library screening): -0.355%
[2]; 1μΜ, 72 h
  cell viability (kinase inhibitor library screening): 62.4%
[2]; 10μΜ, 72 h
  cell viability (kinase inhibitor library screening): -0.46%
A375 cells (parental); 10μΜ, 72 h
  cell viability (kinase inhibitor library screening): 20.5%
A375 cells (parental); 1μΜ, 72 h
  cell viability (kinase inhibitor library screening): 98.4%
[3]; 1μΜ, 72 h
  cell viability (kinase inhibitor library screening): 94.9%
[3]; 10μΜ, 72 h
  cell viability (kinase inhibitor library screening): 14.4%
[4]; 1μΜ, 72 h
  cell viability (kinase inhibitor library screening): 99.3%
[4]; 10μΜ, 72 h
  cell viability (kinase inhibitor library screening): 17.2%
IGR37 cells (parental); 1μΜ, 72 h
  cell viability (kinase inhibitor library screening): 93.8%
IGR37 cells (parental); 10μΜ, 72 h
  cell viability (kinase inhibitor library screening): 8.1%
[5]; 1μΜ, 72 h
  cell viability (kinase inhibitor library screening): 97.3%
[5]; 10μΜ, 72 h
  cell viability (kinase inhibitor library screening): 6.1%
[6]; 1μΜ, 72 h
  cell viability (kinase inhibitor library screening): 100.4%
[6]; 10μΜ, 72 h
  cell viability (kinase inhibitor library screening): 1.5%
